# US20260022118A1, “HETEROCYCLIC COMPOUNDS AS NRAS INHIBITORS” (Board of Regents, The University of Texas System, priority 2023, published 2026)
# Where two headings read alike, the source gives them in different places.
# What was measured:
# NRAS G12D C118S = NRAS G12D C118S (Homo sapiens (Human), UniProt P01111, C118S/G12D); assay: NRas G12D Surface Plasmon Resonance (SPR) binding assay; conditions: Avi-tagged biotinylated NRAS G12D C118S on streptavidin chip, 25° C., 1:1 kinetic or steady-state fit
# Sequence of NRAS G12D C118S (P01111 whole entry G12D/C118S): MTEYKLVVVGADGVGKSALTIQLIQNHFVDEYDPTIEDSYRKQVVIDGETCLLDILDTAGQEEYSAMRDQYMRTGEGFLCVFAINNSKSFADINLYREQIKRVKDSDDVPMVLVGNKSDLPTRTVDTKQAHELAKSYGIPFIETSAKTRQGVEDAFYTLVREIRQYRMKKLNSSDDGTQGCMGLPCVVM
# Method: NRas G12D Surface Plasmon Resonance (SPR) Binding Assay
# This Example illustrates that exemplary compounds and salts thereof described herein bind to NRAS G12D as measured by surface plasmon resonance (SPR).
# Two liters of 1.03× running buffer (1.03×HBS-P+pH 7.4, containing 0.0103 M HEPES, 0.1545 M NaCl, 0.0515% v/v Surfactant P20 (Cytiva®, BR100671); 5.15 mM MgCl2 (Invitrogen, AM9530G); 0.515 mM TCEP, pH 8.0 (GoldBio®, TCEP25)) was prepared and filter sterilized using a 0.22 μm filter. A 1-L volumetric flask was filled partway with this buffer. A 30-mL volumetric flask was used to measure 30 mL of 100% DMSO (Sigma Aldrich®, 41639-100ML) which was added to the 1-L flask. The solution in the 1-L flask was brought up to 1 L with 1.03× buffer, resulting in a 1.0× assay running buffer containing 1.0×HBS-P+, 5 mM MgCl2, […], and 3% DMSO. Remaining 1.03× buffer was used for preparation of samples and immobilization running buffer.
# Samples were prepared in a standard conical-bottomed 384-well microplate by adding 2 μL 10 mM DMSO cpd stock to each well, followed by 8 μL DMSO. A control compound was selected based off of its relatively “fast” kinetics that could be fitted by 1:1 kinetic fitting, as well as by steady-state fitting. Control wells for periodic injection to assess protein activity throughout the assay were also assembled, by diluting 10 mM compound 1:30 in DMSO, then adding 20 μL to the appropriate wells, such that the final concentration of compound would be 10 μM, and the final concentration of DMSO would be 3%. A Biomek™ FXP Laboratory Automation Workstation was used to stamp 20 μL DMSO into all sample wells—minus the control wells—according to the plate map, and then serially dilute 1:3 by mixing and aspirating 10 μL, delivering into the 20 μL of DMSO in the next well, resulting in 10-point serial dilution curves. A Biotek™ Multiflo EL406 Washer Dispenser was used to deliver 80 μL of 1.03× buffer to the compound plate. The plate was mixed 10× by FX, then a final dilution was performed by stamping 18 μL from the compound plate into a 384-well deep-well plate that had also been previously filled with 102 μL 1.03× buffer via the Multiflo. The solution in the deep-well plate was mixed 10× by FX, then sealed with a 384-well microplate foil from Cytiva® (Cytiva® BR100577) and placed on an orbital shaker for 30 minutes at 1000 RPM to ensure complete mixing of the DMSO solution in the buffer. A solvent correction curve was also prepared by making a 4% DMSO solution in 1.03× buffer and diluting in 1.03× buffer such that there were eight solutions of decreasing DMSO concentrations resulting in a high DMSO concentration of 4% and a low concentration of 2% DMSO.
# Immobilization running buffer was prepared in a 200-mL volume by diluting 1.03× running buffer prepared above to 1.0×. A Cytiva® Streptavidin chip (Cytiva®, 29104992) was docked into a Biacore™ S200 instrument, and the instrument was then primed three times into the immobilization running buffer. A protein stock of Avi-tagged NRAS G12D C118S was prepared in-house and biotinylated using the Bulk BirA: BirA biotin-protein ligase bulk reaction kit from Avidity (Avidity®, Bulk BirA). Upon completion of the biotinylation reaction, Amicon® ultra 0.5-mL Centrifugal Filters with a MWCO of 3 k Da (Millipore® UFC500396) were used to reduce the free biotin concentration below 0.1 μM in the protein sample over the course of eight desalting cycles, according to the manufacturer's protocol. Resulting protein concentration was not measured directly as an accurate protein concentration is not required for immobilizing protein on the chip surface; however, a theoretical yield of ≤1.5 mg/mL was estimated based off of retained volumes during the desalting process. Reagents for immobilization were prepared as instructed in the Biacore™ 5200 Control Software Immobilization Wizard, including solutions of 1 M NaCl in 50 mM NaOH, and 1 M NaCl in 50 mM NaOH and 50% isopropyl alcohol. […]
# [1] = tested on: THP-1 cells expressing G12D (NRAS G12D); assay: Inhibition of NRAS G12D-mediated phosphorylation of ERK (AlphaLISA p-ERK1/2) in THP-1 cells; type: cell-based; conditions: 2 hours incubation, HBSS with 0% or 10% FBS, p-ERK1/2 (Thr202/Tyr204) AlphaLISA, read-out: pERK THP-1 IC50
# Method: Inhibition of NRAS G12D-Mediated Phosphorylation of ERK by Exemplary Compounds of Formulas I, II, and III.
# This Example illustrates that exemplary compounds and salts thereof described herein inhibit the phosphorylation of ERK downstream of NRAS G12D.
# THP-1 cells (ATCC TIB-202) expressing G12D were maintained in RPMI-1640 medium supplemented with 10% fetal bovine serum (FBS), 0.05 mM 2-mercaptoethanol, and penicillin/streptomycin. Cells (20,000/well) were seeded onto a 384 well plate in 20 μL of HBSS supplemented with 0% or 10% FBS. Cells were incubated in the absence or presence of various concentrations of test compound (final 1% DMSO) for 2 hours. p-ERK expression was assessed using the AlphaLISA SureFire Ultra p-ERK1/2 (Thr202/Tyr204) (PerkinElmer®, ALSU-PERK-A10K) following manufacturer recommendation. Plates were read on a PerkinElmer® Envision Multimode plate reader. Dose-response curves were analyzed using IC50 regression curve fitting (GeneData Screener). Curves were plotted as a percent control and normalized by high controls without inhibitor (100%), and low controls (0%) containing 1 μM of trametinib, a potent MEK inhibitor.
SMILES,Kd (NRAS G12D C118S) [µM],further results
"C#Cc1c(F)ccc2cc(O)cc(-c3cc4c(cn3)c(N3CC5CCC(C3)N5)nn4CC)c12 [Example 6, 4-(3-(3,8-diazabicyclo[3.2.1]octan-3-yl)-1-ethyl-1H-pyrazolo[4,3-c]pyridin-6-yl)-5-ethynyl-6-fluoronaphthalen-2-ol]",8.2,
"C#Cc1c(F)ccc2cc(O)cc(-c3ncc4c(NCC5(N(C)C)CCC5)nn(CC)c4c3F)c12 [Example 12, 4-(3-(((1-(dimethylamino)cyclobutyl)methyl)amino)-1-ethyl-7-fluoro-1H-pyrazolo[4,3-c]pyridin-6-yl)-5-ethynyl-6-fluoronaphthalen-2-ol]",8.35,
"C#Cc1c(F)ccc2cc(O)cc(-c3ncc4c(N5CC6CCC(C5)N6)nn(C5CCC5)c4c3F)c12 [Example 16, 4-(3-(3,8-diazabicyclo[3.2.1]octan-3-yl)-1-cyclobutyl-7-fluoro-1H-pyrazolo[4,3-c]pyridin-6-yl)-5-ethynyl-6-fluoronaphthalen-2-ol]",5.65,
"C#Cc1c(F)ccc2cc(O)cc(-c3cc4c(cn3)c(N3C5CCC3CNC5)nn4C)c12 [Example 19, 4-(3-(3,8-diazabicyclo[3.2.1]octan-8-yl)-1-methyl-1H-pyrazolo[4,3-c]pyridin-6-yl)-5-ethynyl-6-fluoronaphthalen-2-ol]",6.1,
"C#Cc1c(F)ccc2cc(O)cc(-c3ncc4c(N5CC6CCC(C5)N6)nn(CCC)c4c3F)c12 [Example 14, 4-(3-(3,8-diazabicyclo[3.2.1]octan-3-yl)-7-fluoro-1-propyl-1H-pyrazolo[4,3-c]pyridin-6-yl)-5-ethynyl-6-fluoronaphthalen-2-ol]",4.41,
"C#Cc1c(F)ccc2cc(O)cc(-c3ncc4c(N5CC6CCC(C5)N6)n[nH]c4c3F)c12 [Example 17, 4-(3-(3,8-diazabicyclo[3.2.1]octan-3-yl)-7-fluoro-1H-pyrazolo[4,3-c]pyridin-6-yl)-5-ethynyl-6-fluoronaphthalen-2-ol]",30.8,
"C#Cc1c(F)ccc2cc(O)cc(-c3cc4c(cn3)c([C@H]3[C@@H]5CNC[C@@H]53)cn4C)c12 [Example 22, 4-(3-((1R,5S,6s)-3-azabicyclo[3.1.0]hexan-6-yl)-1-methyl-1H-pyrrolo[3,2-c]pyridin-6-yl)-5-ethynyl-6-fluoronaphthalen-2-ol]",1.64,
"C#Cc1c(F)ccc2cc(O)cc(-c3ncc4c([C@H]5[C@@H]6CN[C@@H](C(=O)OC)[C@@H]65)nn(C)c4c3F)c12 (racemic) [Example 48, methyl rac-(2R,6S)-6-[6-(8-ethynyl-7-fluoro-3-hydroxy-1-naphthyl)-7-fluoro-1-methyl-pyrazolo[4,3-c]pyridin-3-yl]-3-azabicyclo[3.1.0]hexane-2-carboxylate]",,IC50 [1]: 6.47 µM
"C#Cc1c(F)ccc2cc(O)cc(-c3nc(C(=C)C)c4c([C@H]5[C@@H]6CNC[C@@H]65)nn(C5CC5)c4c3F)c12 [Example 53, 4-(3-((1R,5S,6r)-3-azabicyclo[3.1.0]hexan-6-yl)-1-cyclopropyl-7-fluoro-4-(prop-1-en-2-yl)-1H-pyrazolo[4,3-c]pyridin-6-yl)-5-ethynyl-6-fluoronaphthalen-2-ol]",,"IC50 ([1]; Homo sapiens, THP-1, 2 h): 0.00581 µM"
"C#Cc1c(F)ccc2cc(O)cc(-c3nc(N(C)C)c4c(N5C[C@H]6CC[C@@H]5CN6)nn(C5CC5)c4c3F)c12 (stereo in doubt) [Example 92, 4-(3-((1R,4R)-2,5-diazabicyclo[2.2.2]octan-2-yl)-1-cyclopropyl-4-(dimethylamino)-7-fluoro-1H-pyrazolo[4,3-c]pyridin-6-yl)-5-ethynyl-6-fluoronaphthalen-2-ol]",,"IC50 ([1]; Homo sapiens, THP-1, 2 h): > 10 µM"
"C#Cc1c(F)ccc2cc(O)cc(-c3ncc4c(C5[C@H]6CNC[C@@H]56)nc(C)n4c3F)c12 (some centres unmarked) [Example 98, 4-[1-(3-azabicyclo[3.1.0]hexan-6-yl)-5-fluoro-3-methyl-imidazo[1,5-a]pyrazin-6-yl]-5-ethynyl-6-fluoro-naphthalen-2-ol]",,"IC50 ([1]; Homo sapiens, THP-1, 2 h): 9.27 µM"
"C#Cc1c(F)ccc2cc(O)cc(-c3ncc4c([C@H]5[C@@H]6CNC(COC)[C@@H]65)nn(C5CC5)c4c3F)c12 (stereo partly drawn) [Example 99, 4-(1-cyclopropyl-7-fluoro-3-((1S,5R,6S)-2-(methoxymethyl)-3-azabicyclo[3.1.0]hexan-6-yl)-1H-pyrazolo[4,3-c]pyridin-6-yl)-5-ethynyl-6-fluoronaphthalen-2-ol]",,"IC50 ([1]; Homo sapiens, THP-1, 2 h): > 10 µM"
"C#Cc1c(F)ccc2cc(O)cc(-c3nc(C(C)O)c4c([C@H]5[C@@H]6CNC[C@@H]65)nn(C5CC5)c4c3F)c12 (stereo partly drawn) [Example 87, 4-(3-((1R,5S,6r)-3-azabicyclo[3.1.0]hexan-6-yl)-1-cyclopropyl-7-fluoro-4-(1-hydroxyethyl)-1H-pyrazolo[4,3-c]pyridin-6-yl)-5-ethynyl-6-fluoronaphthalen-2-ol]",,"IC50 ([1]; Homo sapiens, THP-1, 2 h): 0.112 µM"

# More lines, main results first:
Kd (NRAS G12D C118S) [µM],SMILES,further results
0.159,"C#Cc1c(F)ccc2cc(O)cc(-c3ncc4c([C@H]5[C@@H]6CNC[C@@H]65)nn(CC)c4c3F)c12 [Example 20, 4-(3-((1R,5S,6r)-3-azabicyclo[3.1.0]hexan-6-yl)-1-ethyl-7-fluoro-1H-pyrazolo[4,3-c]pyridin-6-yl)-5-ethynyl-6-fluoronaphthalen-2-ol]",
0.0526,"C#Cc1c(F)ccc2cc(O)cc(-c3ncc4c([C@H]5[C@@H]6CNC[C@@H]65)cn(C)c4c3F)c12 [Example 2, 4-(3-((1R,5S,6S)-3-azabicyclo[3.1.0]hexan-6-yl)-7-fluoro-1-methyl-1H-pyrrolo[3,2-c]pyridin-6-yl)-5-ethynyl-6-fluoronaphthalen-2-ol 2,2,2-trifluoroacetate]",
31,"C#Cc1c(F)ccc2cc(O)cc(-c3ncc4c(N[C@H]5[C@@H]6CNC[C@@H]65)nn(CC)c4c3F)c12 [Example 11, 4-(3-(((1R,5S,6s)-3-azabicyclo[3.1.0]hexan-6-yl)amino)-1-ethyl-7-fluoro-1H-pyrazolo[4,3-c]pyridin-6-yl)-5-ethynyl-6-fluoronaphthalen-2-ol]",
38.7,"C#Cc1c(F)ccc2cc(O)cc(-c3ncc4c(N5CCNCC5)nn(CC)c4c3F)c12 [Example 10, 4-(1-ethyl-7-fluoro-3-(piperazin-1-yl)-1H-pyrazolo[4,3-c]pyridin-6-yl)-5-ethynyl-6-fluoronaphthalen-2-ol]",
